In ChEMBL document CHEMBL3120103, “CK2 inhibitor CX4945 induces sequential inactivation of proteins in the signaling pathways related with cell migration and suppresses metastasis of A549 human lung cancer cells” (Bioorg Med Chem Lett, 2013):
Calls of active or inactive are those of the source. The rule behind the calls is not given here.

How the values were obtained:
NCI-H1299 [1] = assay: Antiinvasive activity against human H1299 cells after 3 hrs by Boyden chamber invasion assay; format: functional, cell-based
NCI-H1299 [2] = assay: Antimigratory activity against human H1299 cells after 24 hrs by wound-healing assay; format: functional, cell-based
A549 [3] = assay: Reduction in MMP9 expression in human A549 cells at 1 to 10 uM after 24 hrs by Western blot method; format: functional, cell-based
A549 [4] = assay: Reduction in MMP2 expression in human A549 cells at 1 to 10 uM after 24 hrs by Western blot method; format: functional, cell-based
A549 [5] = assay: Antiinvasive activity against human A549 cells after 3 hrs by Boyden chamber invasion assay; format: functional, cell-based
A549 [6] = assay: Antimigratory activity against human A549 cells after 24 hrs by wound-healing assay; format: functional, cell-based
A549 [7] = assay: Cytotoxicity against human A549 cells assessed as viable cells at 1 to 30 uM after 24 hrs by LDH assay; format: cell-based; settings: a549, 24 h
[8] = Cytotoxicity against human A549 cells assessed as viable cells at 1 to 30 uM after 24 hrs by CCK8 assay; format: cell-based; settings: read-out: Activity
[9] = Cytotoxicity against human A549 cells assessed as viable cells at 1 to 30 uM after 3 hrs by CCK8 assay; format: cell-based; settings: read-out: Activity

O=C(O)c1ccc2c(c1)nc(Nc1cccc(Cl)c1)c1ccncc12 [SILMITASERTIB]
Activity (NCI-H1299 [1]): Dose-dependent effect
Activity (NCI-H1299 [2]): Dose-dependent effect
Activity (A549 [3]): inactive
Activity (A549 [4]): inactive
Activity (A549 [5]): Dose-dependent effect
Activity (A549 [6]): Dose-dependent effect
Activity (A549 [7]): Non-toxic
viability at 24 h, up to 30 µM [8]: > 70%
viability at 3 h, up to 30 µM [9]: > 70%
